Measurements from patent publication US20240000749A1, “SOLID FORMULATION” (Janssen Pharmaceuticals, Inc., priority 2020, published 2024).
Values after ≈ are worked out from the molar mass of the structure shown. Read-outs that look alike come from different tables or passages of the source.

Columns and labels:
Assay type in all cases: physicochemical
[1] = Stability of API, SD1 powder and 10 mg SD1 tablets in HDPE bottles; parameters: key to Appearance: “T1”: white powder; “T2”: white or off white round tablet; conditions: Table 6
Description: Stability of the API, SD1 powder as well as the tablets (10 mg strength) comprising SD1 was tested by placing the tablets in High-density polyethylene (HDPE) bottles under stressed conditions as described in column 2 of Table 6.

[2] = Stability of API, SD2 powder and 10 mg SD2 tablets in HDPE bottles; parameters: key to Appearance: “T1”: white powder; “T2”: white or off white round tablet; conditions: Table 8
Description: Stability of the API, SD2 as well as the tablet (10 mg strength) comprising SD2 was tested by placing the tablets in HDPE bottles under stressed conditions as described in column 2 of Table 7.

[3] = In vitro 2-phase (SGF/FaSSIF) miniaturized dissolution of solid dispersion films; conditions: SGF-FaSSIF, 37° C.
Description: In vitro, 2-phase (SGF/FaSSIF) miniaturized dissolution was performed, where the amount of dissolved API was monitored as a function of time. Before starting the dissolution assay, the films were stored at room temperature, for one day for the first screen and for 3 days for the second screen. By doing so, most of the residual solvent was evaporated. Actual dissolution experiments were performed in 96 1 mL glass vials using the Hamilton STAR plus liquid handling platform for both sampling and sample preparation. Before addition to the films, the media was preheated to 37° C. 300 μL of preheated SGF (37° C., pH 1.3) was then added to the solid dispersions. After 15 minutes of incubation in SGF, 600 μL of preheated concentrated FaSSIF (37° C., pH 10.5) was added to the samples. The addition of this concentrated FaSSIF to SGF results in a medium with a similar composition to the typical FaSSIF medium used in 1-phase dissolution studies. At predetermined time intervals (11, 24, 34, 49, 79, 139 minutes), aliquots were withdrawn from the dissolution media and filtered through a 0.45 μm GHP membrane filter. Subsequently, the filtered solutions were quantitatively diluted with N-methyl pyrrolidone (NMP) to prevent possible precipitation. The amount of dissolved API was determined by UPLC/UV-Vis analysis. Experiments were performed in duplicate for each formulation per screen. […]

[4] = Equilibrium solubility determined by UPLC
[5] = Approximate solubility screening in organic solvents at ambient temperature; conditions: organic solvent or mixture, thermodynamic from solid, read-out: S (solubility)
Description: To screen appropriate solvent for spray drying, approximate solubility of starting material was estimated in different organic solvents at ambient temperature.

Compound: COc1cc(NC(C(=O)c2c[nH]c3ccc(OC(F)(F)F)cc23)c2ccc(Cl)cc2OC)cc(S(C)(=O)=O)c1 (centres unmarked) [API]
- Appearance ([1]; 40° C./75% RH (closed), 1 M): T1
- Purity (%) ([1]; 40° C./75% RH (closed), 1 M): 98.96%
- Total impurity (%) ([1]; 40° C./75% RH (closed), 1 M): 1.04%
- Appearance ([1]; 40° C./75% RH (closed), 2 M): T1
- Purity (%) ([1]; 40° C./75% RH (closed), 2 M): 98.94%
- Total impurity (%) ([1]; 40° C./75% RH (closed), 2 M): 1.06%
- Appearance ([1]; 40° C./75% RH (closed), 2 W): T1
- Purity (%) ([1]; 40° C./75% RH (closed), 2 W): 98.95%
- Total impurity (%) ([1]; 40° C./75% RH (closed), 2 W): 1.05%
- Appearance ([1]; 40° C./75% RH (closed), 3 M): T1
- Purity (%) ([1]; 40° C./75% RH (closed), 3 M): 98.95%
- Total impurity (%) ([1]; 40° C./75% RH (closed), 3 M): 1.05%
- Appearance ([1]; 40° C./75% RH (open), 1 M): T1
- Purity (%) ([1]; 40° C./75% RH (open), 1 M): 98.94%
- Total impurity (%) ([1]; 40° C./75% RH (open), 1 M): 1.06%
- Appearance ([1]; 40° C./75% RH (open), 2 M): T1
- Purity (%) ([1]; 40° C./75% RH (open), 2 M): 98.96%
- Total impurity (%) ([1]; 40° C./75% RH (open), 2 M): 1.04%
- Appearance ([1]; 40° C./75% RH (open), 2 W): T1
- Purity (%) ([1]; 40° C./75% RH (open), 2 W): 98.95%
- Total impurity (%) ([1]; 40° C./75% RH (open), 2 W): 1.05%
- Appearance ([1]; 40° C./75% RH (open), 3 M): T1
- Purity (%) ([1]; 40° C./75% RH (open), 3 M): 98.96%
- Total impurity (%) ([1]; 40° C./75% RH (open), 3 M): 1.04%
- Appearance ([2]; 40° C./75% RH (closed), 1 M): T1
- Purity (%) ([2]; 40° C./75% RH (closed), 1 M): 98.96%
- Total impurity (%) ([2]; 40° C./75% RH (closed), 1 M): 1.04%
- Appearance ([2]; 40° C./75% RH (closed), 2 M): T1
- Purity (%) ([2]; 40° C./75% RH (closed), 2 M): 98.94%
- Total impurity (%) ([2]; 40° C./75% RH (closed), 2 M): 1.05%
- Appearance ([2]; 40° C./75% RH (closed), 2 W): T1
- Purity (%) ([2]; 40° C./75% RH (closed), 2 W): 98.95%
- Total impurity (%) ([2]; 40° C./75% RH (closed), 2 W): 1.05%
- Appearance ([2]; 40° C./75% RH (closed), 3 M): T1
- Purity (%) ([2]; 40° C./75% RH (closed), 3 M): 98.95%
- Total impurity (%) ([2]; 40° C./75% RH (closed), 3 M): 1.05%
- Appearance ([2]; 40° C./75% RH (open), 1 M): T1
- Purity (%) ([2]; 40° C./75% RH (open), 1 M): 98.94%
- Total impurity (%) ([2]; 40° C./75% RH (open), 1 M): 1.04%
- Appearance ([2]; 40° C./75% RH (open), 2 M): T1
- Purity (%) ([2]; 40° C./75% RH (open), 2 M): 98.96%
- Total impurity (%) ([2]; 40° C./75% RH (open), 2 M): 1.04%
- Appearance ([2]; 40° C./75% RH (open), 2 W): T1
- Purity (%) ([2]; 40° C./75% RH (open), 2 W): 98.95%
- Total impurity (%) ([2]; 40° C./75% RH (open), 2 W): 1.06%
- Appearance ([2]; 40° C./75% RH (open), 3 M): T1
- Purity (%) ([2]; 40° C./75% RH (open), 3 M): 98.96%
- Total impurity (%) ([2]; 40° C./75% RH (open), 3 M): 1.05%
- final release of the total amount of API present in the films ([3]; first screen): approximately 9%
- final release of the total amount of API present in the films ([3]; second screen): approximately 9%
- solubility thermodynamic ([4]; MeOH/dichloromethane (1/1, organic solvent or mixture, thermodynamic from solid), MeOH/dichloromethane (DCM) (1/1, v/v)): 317 mg/mL (≈ 544 mM)
- solubility thermodynamic ([4]; organic solvent or mixture, thermodynamic from solid, MeOH): 42 mg/mL (≈ 72 mM)
- solubility ([5]; Acetone/EtOH (1/1, v/v)): > 100 mg/mL
- solubility ([5]; Acetone/EtOH (2/1, v/v)): > 100 mg/mL
- solubility ([5]; Acetone/H2O (9/1, v/v)): > 100 mg/mL
- solubility ([5]; Acetone/MeOH (2/1, v/v)): > 100 mg/mL
- solubility ([5]; EtOH/H2O (9/1, v/v), HPMC E5 added into co-solvent system directly): 10 to 12.5 mg/mL (≈ 17.2 to 21.4 mM)
- solubility ([5]; MeOH): 42 mg/mL (≈ 72 mM)
- solubility ([5]; MeOH/DCM (1/1, v/v)): > 100 mg/mL
